Source: patent US12528786B2, “Plasma kallikrein inhibitors” (Merck Sharp & Dohme LLC, priority 2020, dated 2026)

Target: T1, Human plasma kallikrein (Homo sapiens, UniProt P03952)
T1 construct: yields a heavy chain (371 amino acids) and a light chain (248 amino acids); purchased Enzyme Research Laboratories
Test: Kallikrein Assay (fluorogenic substrate hydrolysis, AFC release)
Format: biochemical
Conditions: purified Human plasma kallikrein 0.5 nM; substrate Acetyl-K—P—R-AFC 100 mM; 50 mM HEPES pH 7.4
Method in brief: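 Enzyme–inhibitor equilibrated before substrate dilution to ≤0.2 Km; human plasma kallikrein at 0.5 nM final, Acetyl-K-P-R-AFC substrate, HEPES pH 7.4 buffer with NaCl, CaCl2, PEG 8000, at room temperature or 37° C. Linear-phase fluorescence rate gives percent inhibition, four-parameter logistic IC50, then Cheng-Prusoff Ki.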

T1 sequence (P03952 391-638 limits assumed): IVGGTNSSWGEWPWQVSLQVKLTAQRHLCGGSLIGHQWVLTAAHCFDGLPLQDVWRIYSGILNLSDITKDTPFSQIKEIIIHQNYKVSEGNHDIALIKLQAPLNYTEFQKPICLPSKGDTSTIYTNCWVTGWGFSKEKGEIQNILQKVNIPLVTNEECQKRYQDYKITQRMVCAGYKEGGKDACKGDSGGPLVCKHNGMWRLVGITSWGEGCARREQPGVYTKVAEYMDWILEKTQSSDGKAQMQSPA
T1 sequence (P03952 20-390 partner limits assumed): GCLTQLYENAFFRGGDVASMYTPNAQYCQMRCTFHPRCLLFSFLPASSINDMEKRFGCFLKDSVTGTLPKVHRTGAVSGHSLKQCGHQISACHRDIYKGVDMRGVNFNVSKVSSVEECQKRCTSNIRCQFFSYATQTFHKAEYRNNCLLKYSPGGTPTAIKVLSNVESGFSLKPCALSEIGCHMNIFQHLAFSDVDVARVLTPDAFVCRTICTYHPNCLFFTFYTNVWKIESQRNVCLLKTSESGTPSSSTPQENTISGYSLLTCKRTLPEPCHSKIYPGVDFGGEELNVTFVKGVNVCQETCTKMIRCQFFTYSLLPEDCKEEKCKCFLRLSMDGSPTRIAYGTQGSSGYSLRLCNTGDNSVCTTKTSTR

Row | SMILES | IC50 [nM]
1 | COc1cc(N2C[C@H]3C[C@H]3C2=O)ncc1C(C)n1cc(C(=O)N[C@H]2C[C@@H](c3cc(Cl)ccc3C#N)C2)nn1 (single isomer, unassigned) [Example 88, N-((cis)-3-(5-chloro-2-cyanophenyl)cyclobutyl)-1-((R or S)-1-(4-methoxy-6-((1R,5S)-2-oxo-3-azabicyclo[3.1.0]hexan-3-yl)pyridin-3-yl)ethyl)-1H-1,2,3-triazole-4-carboxamide] | 11.3
2 | Cc1cc(N2C[C@H]3C[C@H]3C2=O)ncc1C(C)n1cc(C(=O)N[C@H]2C[C@@H](c3cc(Cl)ccn3)C2)nn1 (single isomer, unassigned) [Example 73, N-((cis)-3-(4-chloropyridin-2-yl)cyclobutyl)-1-((R or S)-1-(4-methyl-6-((1R,5S)-2-oxo-3-azabicyclo[3.1.0]hexan-3-yl)pyridin-3-yl)ethyl)-1H-1,2,3-triazole-4-carboxamide] | 107
3 | CC(c1cnc(N2C[C@H]3C[C@H]3C2=O)nc1)n1cc(C(=O)N[C@H]2C[C@@H](c3cc(Cl)ccc3C#N)C2)cn1 (single isomer, unassigned) [Example 4, N-((cis)-3-(5-chloro-2-cyanophenyl)cyclobutyl)-1-((S or R)-1-(2-((1R,5S)-2-oxo-3-azabicyclo[3.1.0]hexan-3-yl)pyrimidin-5-yl)ethyl)-1H-pyrazole-4-carboxamide carboxamide] | 17.5
4 | Cc1c([C@H](C)n2cc(C(=O)N[C@H]3C[C@@H](c4cc(Cl)ccc4C#N)C3)nn2)cnc(N2C[C@H]3C[C@H]3C2=O)c1O (relative stereo) [Example 164, N-((cis)-3-(5-chloro-2-cyanophenyl)cyclobutyl)-1-((S)-1-(5-hydroxy-4-methyl-6-((1R,5S)-2-oxo-3-azabicyclo[3.1.0]hexan-3-yl)pyridin-3-yl)ethyl)-1H-12,3-triazole-4-carboxamide] | 46.7
5 | CC(c1cnc(N2C[C@H]3C[C@H]3C2=O)nc1)n1cc(C(=O)N[C@H]2C[C@@H](c3cc(Cl)ccc3C#N)C2)nn1 (single isomer, unassigned) [Example 78] | 41.5
6 | C[C@@H](c1cncc(N2C[C@H]3C[C@H]3C2=O)c1)n1cc(C(=O)N[C@H]2C[C@@H](c3cc(Cl)ccc3C#N)C2)nn1 (single isomer, unassigned) [Example 138] | 11.1
7 | Cc1cc(N2C[C@H]3C[C@H]3C2=O)ncc1C(C)n1cc(C(=O)NC2CC(c3cc(Cl)ccc3C#N)C2)c(C(C)O)n1 (single isomer, unassigned) [Example 171] | 5.6
8 | Cc1cc(N2C[C@H]3C[C@H]3C2=O)ncc1C(C)n1cc(C(=O)N[C@H]2C[C@@H](c3cc(F)ccc3C#N)C2)cn1 (single isomer, unassigned) [Example 35, N-((cis)-3-(2-cyano-5-fluorophenyl)cyclobutyl)-1-((S or R)-1-(4-methyl-6-((1R,5S)-2-oxo-3-azabicyclo[3.1.0]hexan-3-yl)pyridin-3-yl)ethyl)-1H-pyrazole-4-carboxamide] | 102
9 | Cc1c(C(C)n2cc(C(=O)NC3CC(c4cccc(Cl)c4)C3O)nn2)nnc(N2C[C@H]3C[C@H]3C2=O)c1C (single isomer, unassigned) [Example 131, N-((1R,2R,3R or 1S,2S,3S))-3-(3-chlorophenyl)-2-hydroxycyclobutyl)-1-((S or R)-1-(4,5-dimethyl-6-((1R,5S)-2-oxo-3-azabicyclo[3.1.0]hexan-3-yl)pyridazin-3-yl)ethyl)-1H-1,2,3-triazole-4-carboxamide] | 281
10 | Cc1c(C(C)n2cc(C(=O)NC3CC(c4cccc(Cl)c4)C3O)nn2)nnc(N2C[C@H]3C[C@H]3C2=O)c1C (single isomer, unassigned) [Example 132, N-((1S,2S,3S or 1R,2R,3R))-3-(3-chlorophenyl)-2-hydroxycyclobutyl)-1-((S or R)-1-(4,5-dimethyl-6-((1R,5S)-2-oxo-3-azabicyclo[3.1.0]hexan-3-yl)pyridazin-3-yl)ethyl)-1H-1,2,3-triazole-4-carboxamide] | 279
11 | Cc1cc(N2C[C@H]3C[C@H]3C2=O)ncc1C(C)n1cc(C(=O)N[C@H]2C[C@@H](c3cc(Cl)ccc3C(F)F)C2)nn1 (single isomer, unassigned) [Example 71, N-((cis)-3-(5-chloro-2-(difluoromethyl)phenyl)cyclobutyl)-1-((R or S)-1-(4-methyl-6-((1R,5S)-2-oxo-3-azabicyclo[3.1.0]hexan-3-yl)pyridin-3-yl)ethyl)-1H-1,2,3-triazole-4-carboxamide] | 12.7
12 | Cc1ccc(C#N)c([C@H]2C[C@@H](NC(=O)c3cn(C(C)c4nnc(N5C[C@H]6C[C@H]6C5=O)c(C)c4C)nn3)C2)n1 (single isomer, unassigned) [Example 128, N-((cis)-3-(3-cyano-6-methylpyridin-2-yl)cyclobutyl)-1-((S or R)-1-(4,5-dimethyl-6-((1R,5S)-2-oxo-3-azabicyclo[3.1.0]hexan-3-yl)pyridazin-3-yl)ethyl)-1H-1,2,3-triazole-4-carboxamide] | 2.3
13 | Cc1cc(N2C[C@H]3C[C@H]3C2=O)ncc1C(C)n1cc(C(=O)N[C@H]2C[C@@H](c3cc(Cl)ccc3C(F)F)C2)nn1 (single isomer, unassigned) [Example 72, N-((cis)-3-(5-chloro-2-(difluoromethyl)phenyl)cyclobutyl)-1-((S or R)-1-(4-methyl-6-((1R,5S)-2-oxo-3-azabicyclo[3.1.0]hexan-3-yl)pyridin-3-yl)ethyl)-1H-1,2,3-triazole-4-carboxamide] | 10000
14 | Cc1nc(N2C[C@H]3C[C@H]3C2=O)ccc1C(C)n1cc(C(=O)N[C@H]2C[C@@H](c3cc(Cl)ccc3C#N)C2)nn1 (single isomer, unassigned) [Example 94, N-((cis)-3-(5-chloro-2-cyanophenyl)cyclobutyl)-1-((R or S)-1-(2-methyl-6-((1R,5S)-2-oxo-3-azabicyclo[3.1.0]hexan-3-yl)pyridin-3-yl)ethyl)-1H-1,2,3-triazole-4-carboxamide] | 178
15 | Cc1cc(N2C[C@H]3C[C@H]3C2=O)ncc1C(C)n1cc(C(=O)N[C@H]2C[C@@](F)(c3cc(Cl)ccc3C#N)C2)nn1 (single isomer, unassigned) [Example 76, N-(cis)-3-(5-chloro-2-cyanophenyl)-3-fluorocyclobutyl)-1-((S or R)-1-(4-methyl-6-((1R,5S)-2-oxo-3-azabicyclo[3.1.0]hexan-3-yl)pyridin-3-yl)ethyl)-1H-1,2,3-triazole-4-carboxamide] | 15.7

Compounds with a lower IC50, results first:

Row | IC50 [nM] | SMILES
16 | 1.6 | Cc1c(C(C)n2cc(C(=O)N[C@H]3C[C@@H](c4cc(Cl)ccc4C#N)C3)cn2)cnc(N2C[C@H]3C[C@H]3C2=O)c1F (single isomer, unassigned) [Example 29, N-((cis)-3-(5-chloro-2-cyanophenyl)cyclobutyl)-1-((S or R)-1-(5-fluoro-4-methyl-6-((1R,5S)-2-oxo-3-azabicyclo[3.1.0]hexan-3-yl)pyridin-3-yl)ethyl)-1H-pyrazole-4-carboxamide]
17 | 1.9 | Cc1ccc(C#N)c([C@H]2C[C@@H](NC(=O)c3cn(C(C)c4cnc(N5C[C@H]6C[C@H]6C5=O)cc4C)nn3)C2)n1 (single isomer, unassigned) [Example 68, N-((cis)-3-(3-cyano-6-methylpyridin-2-yl)cyclobutyl)-1-((R or S)-1-(4-methyl-6-((1R,5S)-2-oxo-3-azabicyclo[3.1.0]hexan-3-yl)pyridin-3-yl)ethyl)-1H-1,2,3-triazole-4-carboxamide]
18 | 0.6 | Cc1cc([C@@H](C)n2cc(C(=O)N[C@H]3C[C@@H](c4cc(Cl)ccc4C#N)C3)nn2)cnc1N1C[C@H]2C[C@H]2C1=O (single isomer, unassigned) [Example 55]
19 | 1.9 | Cc1c([C@@H](C)n2cc(C(=O)NC3CC(c4cc(Cl)ccc4C#N)C3)cn2)cnc(N2C[C@H]3C[C@H]3C2=O)c1Cl (single isomer, unassigned) [Example 167]
20 | 2.2 | COc1cc(C(C)n2cc(C(=O)N[C@H]3C[C@@](C)(c4cc(Cl)ccc4C#N)C3)nn2)cnc1N1C[C@H]2C[C@H]2C1=O (single isomer, unassigned) [Example 106, N-((cis)-3-(5-chloro-2-cyanophenyl)-3-methylcyclobutyl)-1-((S or R)-1-(5-methoxy-6-((1R,5S)-2-oxo-3-azabicyclo[3.1.0]hexan-3-yl)pyridin-3-yl)ethyl)-1H-1,2,3-triazole-4-carboxamide]
21 | 2.1 | CC(c1cnc(N2C[C@H]3C[C@H]3C2=O)c(F)c1)n1cc(C(=O)N[C@H]2C[C@@H](c3cc(Cl)ccc3C#N)C2)nn1 (single isomer, unassigned) [Example 103, N-((cis)-3-(5-chloro-2-cyanophenyl)cyclobutyl)-1-((R or S)-1-(5-fluoro-6-((1R,5S)-2-oxo-3-azabicyclo[3.1.0]hexan-3-yl)pyridin-3-yl)ethyl)-1H-1,2,3-triazole-4-carboxamide]
22 | 0.9 | Cc1nc(C(C)n2cc(C(=O)N[C@H]3C[C@@H](c4cc(Cl)ccc4C#N)C3)nn2)cnc1N1C[C@H]2CC2C1=O (single isomer, unassigned) [Example 85]
23 | 1.6 | Cc1nc([C@@H](C)n2cc(C(=O)N[C@H]3C[C@@H](c4cc(Cl)ccc4C#N)C3)nn2)cnc1N1C[C@H]2CC2C1=O (single isomer, unassigned) [Example 84]
24 | 0.3 | Cc1c(C(C)n2cc(C(=O)N[C@H]3C[C@@H](c4cc(Cl)ccc4C#N)C3)cn2)cnc(N2C[C@H]3C[C@H]3C2=O)c1C (single isomer, unassigned) [Example 39, N-((cis)-3-(5-chloro-2-cyanophenyl)cyclobutyl)-1-((R or S)-1-(4,5-dimethyl-6-((1R,5S)-2-oxo-3-azabicyclo[3.1.0]hexan-3-yl)pyridin-3-yl)ethyl)-1H-pyrazole-4-carboxamide]
